{"source": "patent US9220794B2", "about": "“Two-photon fluorescent probes for imaging of total sulfide in live cell and tissue, and quantitative estimation of total sulfide concentration using the same” (Korea University Research and Business Foundation, priority 2013, dated 2015)", "key": {"[1]": {"test_system": "rat colon tissue", "test": "Ratiometric TPM imaging (F2/F1) of rat colon slices", "assay_type": "in vivo", "details": "rats given 5-FU 150 mg/kg i.p., 8 hours, probe 2-6", "experimental": "The utility of the compound of [Chemical Formula 2-6] was investigated in living tissues from a 5-week-old rat colon. The inventors were particularly interested in the mucosa, muscularis mucosae and submucosa because they are invaded in the early stage of tumor (FIG. 4c). Since it takes a long time to stain the tissues during which they may be deformed, excess amount (20 μM) of the compound of [Chemical Formula 2-6] was used to facilitate staining.\nBecause the structure of the colon tissue is heterogeneous, TPEF intensities were acquired from 150 sections along the z-direction at a depth of about 90-170 μm using two detection windows (1 and 2) to visualize the overall sulfide distribution.\nTherefore, the sections were divided into two regions and they were assigned as mucosa (90-150 μm) and submucosa including the muscularis mucosae (151-170 μm).\n(§1) Male Sprague-Dawley rats (235-265 g) were divided into two groups (5-FU and control groups). In the 5-FU group, 150 mg/kg of 5-FU (SoloPak Laboratories, Franklin Park, Ill.) were intraperitoneally injected into the rats. The rats of the control group were injected with saline. Each group consisted of 4 rats.\nAll the rats were injected between 9 pm and 12 midnight, were allowed free access to food and water and were housed in the same room with 8-hour cycles.\n(§2) 8 hours after the intraperitoneal injection, all the rats were sacrificed. Laparotomy was performed after anesthetizing the rats.\nSlices were prepared from the colon of the rats. The colon slices were cut into 2-cm long segments, opened by longitudinal incision and then treated with Dulbecco's phosphate-buffered saline (D-PBS; […]).\nThe colon slices were incubated with the compound of [Chemical Formula 2-6] (20 μM) in D-PBS bubbled with 95% O2 and 5% CO2 at 37° C. The colon slices were then moved to glass-bottomed dishes, washed 3 times with D-PBS and observed under a confocal multiphoton microscope.\nTPEF intensities were collected using detection windows of 390-450 nm and 520-650 nm, with 110 sections at a depth of 90-150 μm (mucosa) and 40 sections at a depth of 151-170 μm (submucosa).\nThen ratiometric images were constructed from the TPEF intensities collected using the two detection window. The F2/F1 ratio was expressed as mean±SD and p was set to be smaller than 0.05."}, "[2]": {"test_system": "rat colon tissue", "test": "Kinetic measurement of total sulfide in rat colon tissue slices", "assay_type": "in vivo", "details": "probe 2-6; for kobs in colon tissue: after 5-FU 150 mg/kg i.p., 8 hours; for total sulfide concentration in colon tissue: after 5-FU treatment", "experimental": "To quantitatively estimate the total sulfide concentration, kinetic experiments were performed in the colon tissue labeled with the compound of [Chemical Formula 2-6].\nas §1, §2\nKinetic experiments in rat colon tissue were performed using four colon slices obtained from four rats. Two sets of experiments were performed for each slice. In each set, TPEF intensities from 8 ROI's/section were collected at depths of 90-150 μm (mucosa) and 151-170 μm (submucosa) in the colon tissue labeled with the compound of [Chemical Formula 2-6] and averaged.\nThe rate constant (kobs) was measured from 7 and 3 sections of the mucosa and submucosa tissues, respectively, in order to obtain 112 kobs and 48 kobs values, respectively. The rate constant (kobs) was expressed as mean±SD and p was set to be smaller than 0.05."}, "[3]": {"test": "One-photon absorption and emission spectra, fluorescence quantum yield", "assay_type": "physicochemical", "details": "for 10^−4 ε: value is ε×10^−4", "experimental": "The solvatochromic effect observed for the compound of [Chemical Formula 2-6] may have resulted from the […] dipole moment.\nAbsorption spectra were recorded on the Hewlett-Packard 8453 diode array spectrophotometer and fluorescence spectra were obtained with the Amico-Bowman series 2 luminescence spectrometer with a 1-cm standard quartz cell."}, "[4]": {"test": "Measurement of two-photon cross section (fs fluorescence technique, rhodamine 6G reference)", "assay_type": "physicochemical", "details": "for Φδmax, two-photon action cross section: uncertainty ±15%", "experimental": "Two-photon cross section (δ) was determined using a femtosecond (fs) fluorescence measurement technique.\nThe compound of [Chemical Formula 2-5] and the compound of [Chemical Formula 2-6] were dissolved in 20 mM HEPES buffer (pH 7.2) and 3.0×10^−6 M HEPES/EtOH (1/1) and then two-photon induced fluorescence intensity was measured at 740-940 nm using rhodamine 6G as a reference, whose two-photon property has been well characterized. The two-photon fluorescence intensities of the reference and the compound of [Chemical Formula 2-6] and the compound of [Chemical Formula 2-5] were determined.\nThe two-photon cross section was calculated from δ=δr(Ssφrφrcr)/(Srφsφscs). In the equation, the subscripts s and r stand for the sample, i.e., the compound of [Chemical Formula 2-6] and the compound of […], respectively. S denotes the intensity of the signal collected using a CCD detector, φ is the fluorescence quantum yield (measured using coumarin 307 and rhodamine B according to the literature), […] fluorescence collection efficiency, and c is the number density of molecules in solution. δr is the two-photon cross section of the reference molecule."}, "[5]": {"test_system": "HeLa cells", "test": "Two-photon excited fluorescence spectra of labeled HeLa cells", "assay_type": "cell-based, human", "experimental": "Accordingly, it can be seen that HEPES/EtOH (1/1) has polarity similar to that of the cellular environment.\nThis confirms again that HEPES/EtOH (1/1) is a good model of the cellular environment and HS^− can be detected by TPM using the compound of [Chemical Formula 2-6].\nHeLa human cervical carcinoma cells were acquired from the ATCC (Manassas, Va., USA). The cells were cultured in DMEM (WelGene, Inc., Seoul, Korea) supplemented with heat-inactivated 10% FBS (WelGene), penicillin (100 units/mL) and streptomycin ([…]).\nFor labeling, the growth medium was removed and replaced with DMEM without FBS. The cells were incubated with the compound of [Chemical Formula 2-6] ([…]) for 30 minutes, washed 3 times with FBS-free DMEM and imaged.\nThe TPM images were obtained with the DM IRE2 microscope (Leica) by exciting the probes with a mode-locked titanium-sapphire laser source (Coherent Chameleon, 90 MHz, 200 fs) set at a wavelength of 750 nm and an output power of 1380 mW, which corresponded to an average power of approximately 2 mW in the focal plane."}, "[6]": {"test": "pH sensitivity of the fluorescence", "assay_type": "physicochemical", "details": "biologically relevant pH range"}, "[7]": {"test_system": "HeLa cells", "test": "Kinetic estimation of total sulfide concentration in HeLa cells (TPEF)", "assay_type": "cell-based, human", "experimental": "To quantitatively estimate the total sulfide concentration in living cells, the TPEF intensity of HeLa cells labeled with the compound of [Chemical Formula 2-6] was monitored in the absence and presence of Na2S, cysteine (Cys) and glutathione (GSH) with 20-30 minute intervals.\nSince H2S and HS^− are in equilibrium and [H2S]/[HS^−]=[H^+]/Ka=0.794 in HEPES/EtOH (1/1, pH=7.2), it seems appropriate to present the total sulfide concentration ([H2S]+[HS^−]).\nKinetic experiments in HeLa cells were conducted in the same manner except that TPEF intensities from HeLa cells labeled with the compound of [Chemical Formula 2-6] upon excitation at 750 nm were monitored with 20-30 minute intervals.\nThe average TPEF intensities at given time and the SB2/SA1 ratio was obtained by dividing the TPEF intensity of [Chemical Formula 2-6] at 390-450 nm by that of [Chemical Formula 2-5] at 525-650 nm in the HeLa cells (FIG. 1b) were used in the kobs calculation.\nThe kobs value was measured at 10 regions of interest (ROIs) from three independent cell lines.\nTo evaluate the effect of Na2S, cysteine and GSH, HeLa cells were incubated with the compound of [Chemical Formula 2-6] (2 μM) and then treated with Na2S (100, 300 μM), cysteine (500 μM) and GSH (500 μM) for 30 minutes. The cells were then washed 3 times with FBS-free DMEM and subjected to kinetic measurement."}, "[8]": {"test": "physchem", "details": "pH 7.2", "quoted_text": "The pKa value of H2S in HEPES/EtOH (1/1, pH 7.2) was estimated by using the following equations. HS^−+H2O⇄H2S+HO^− K1=[H2S][HO^−]/[HS^−] (1) H2O⇄H^++HO^− Kw=[H^+][HO^−] (2) H2S⇄H^++HS^− Ka=[H^+][HS^−]/[H2S]=Kw/K1 (3)\nFirst, the pH of the solution containing 10.0 mM NaSH was measured in H2O/EtOH (1/1) at 37.0° C. using a pH meter.\nThe K1 value was calculated from the equation (1) using [HS^−]o=10.0 mM and pH=9.00.\nThe pKa value of H2S in HEPES/EtOH (1/1, pH 7.2) was then calculated from the equation (3) using K1=1.00×10^−8M and pKw=15.10 reported in H2O/EtOH (1/1)."}, "[9]": {"details": "HEPES buffer (20 mM HEPES, 100 mM KCl, pH 7.4)"}, "[10]": {"details": "cells treated with 500 μM additive, probe 2-6"}}, "data": [{"molecule": "O=c1[nH]cc(F)c(=O)[nH]1", "note": "[5-fluorouracil, reference compound]", "values": [{"measurement": "emission ratio F2/F1", "setting": "[1]; mucosal layer", "result": "0.98±0.07"}, {"measurement": "emission ratio F2/F1", "setting": "[1]; submucosa", "result": "0.84±0.05"}, {"measurement": "kobs in colon tissue", "setting": "[2]; mucosa", "result": "(4.0±0.7)×10^−5 s^−1"}, {"measurement": "total sulfide concentration in colon tissue", "setting": "[2]; mucosa", "result": "14 ± 3", "unit": "µM"}, {"measurement": "kobs in colon tissue", "setting": "[2]; submucosa", "result": "(2.3±0.6)×10^−5 s^−1"}, {"measurement": "total sulfide concentration in colon tissue", "setting": "[2]; submucosa", "result": "7.9 ± 2.2", "unit": "µM"}]}, {"molecule": "COCCOCCC1(CCOCCOC)c2cc(N)ccc2-c2ccc(-c3nc4ccccc4s3)cc21", "note": "[Chemical Formula 2-5]", "values": [{"measurement": "Δλ^FImax, shift of emission spectrum with solvent polarity", "setting": "[3]; 1,4-dioxane<DMF<EtOH<HEPES/EtOH (1/1)<HEPES buffer", "result": 95, "unit": "nm"}, {"measurement": "Φ, fluorescence quantum yield", "setting": "[3]; EtOH", "result": 0.87}, {"measurement": "λ^(1)max, one-photon absorption maximum", "setting": "[3]; EtOH", "result": 381, "unit": "nm"}, {"measurement": "λ^flmax, one-photon emission maximum", "setting": "[3]; EtOH", "result": 498, "unit": "nm"}, {"measurement": "10^−4 ε", "setting": "[3]; EtOH", "result": "(4.81) M^−1cm^−1"}, {"measurement": "Φ, fluorescence quantum yield", "setting": "[3]; HEPES buffer", "result": 0.46}, {"measurement": "λ^(1)max, one-photon absorption maximum", "setting": "[3]; [9]", "result": 363, "unit": "nm"}, {"measurement": "λ^flmax, one-photon emission maximum", "setting": "[3]; [9]", "result": 548, "unit": "nm"}, {"measurement": "ε at maximum absorption", "setting": "[3]; HEPES buffer, pH 7.4", "result": 39100, "unit": "M⁻¹ cm⁻¹"}, {"measurement": "Φ, fluorescence quantum yield", "setting": "[3]; HEPES/EtOH (1/1)", "result": 0.81}, {"measurement": "λ^(1)max, one-photon absorption maximum", "setting": "[3]; HEPES/EtOH (1/1)", "result": 368, "unit": "nm"}, {"measurement": "λ^flmax, one-photon emission maximum", "setting": "[3]; HEPES/EtOH (1/1)", "result": 530, "unit": "nm"}, {"measurement": "10^−4 ε", "setting": "[3]; HEPES/EtOH (1/1)", "result": "(4.77) M^−1cm^−1"}, {"measurement": "10^−4 ε", "setting": "[3]; HEPES", "result": "(3.91) M^−1cm^−1"}, {"measurement": "λ^(2)max, two-photon maximum", "setting": "[4]; HEPES", "result": 750, "unit": "nm"}, {"measurement": "Φδmax, two-photon action cross section", "setting": "[4]; HEPES buffer, 2-6 at 740 nm, 2-5 at 750 nm", "result": 52, "unit": "GM"}, {"measurement": "λ^(2)max, two-photon maximum", "setting": "[4]; HEPES/EtOH (1/1)", "result": 750, "unit": "nm"}, {"measurement": "increase of action cross section (φδ) in HEPES/EtOH (1/1) versus HEPES buffer", "setting": "[4]; HEPES/EtOH (1/1) vs HEPES buffer", "result": "about 2 fold"}, {"measurement": "Φδmax, two-photon action cross section", "setting": "[4]; HEPES/EtOH (1/1), GM = 10^−50 cm^4s/photon", "result": 94, "unit": "GM"}, {"measurement": "λ^flmax, maximum emission in cells", "setting": "[5]", "result": 520, "unit": "nm"}, {"measurement": "pH sensitivity", "setting": "[6]", "result": "pH-insensitive"}]}, {"molecule": "N[C@@H](CS)C(=O)O", "note": "[Cys, cysteine]", "values": [{"measurement": "kobs in labeled HeLa cells", "setting": "[7]; [10]", "result": "(1.4±0.7)×10^−6 s^−1"}, {"measurement": "total sulfide concentration ([H2S]+[HS^−]) in HeLa cells", "setting": "[7]; [10]", "result": "0.50 ± 0.23", "unit": "µM"}]}, {"molecule": "N[C@@H](CCC(=O)N[C@@H](CS)C(=O)NCC(=O)O)C(=O)O", "note": "[GSH, glutathione]", "values": [{"measurement": "kobs in labeled HeLa cells", "setting": "[7]; [10]", "result": "(6.3±1.8)×10^−6 s^−1"}, {"measurement": "total sulfide concentration ([H2S]+[HS^−]) in HeLa cells", "setting": "[7]; [10]", "result": "2.2 ± 0.6", "unit": "µM"}]}, {"molecule": "S", "note": "[H2S, Hydrogen sulfide]", "values": [{"measurement": "pKa", "setting": "[8]", "result": 7.1}]}, {"molecule": "[Na+].[Na+].[S-2]", "note": "[Na2S]", "values": [{"measurement": "kobs in labeled HeLa cells", "setting": "[7]; cells pretreated with 100 μM Na2S, probe 2-6", "result": "(2.6±0.9)×10^−6 s^−1"}, {"measurement": "total sulfide concentration ([H2S]+[HS^−]) in HeLa cells", "setting": "[7]; cells pretreated with 100 μM Na2S, from kobs, k2=5.17 M^−1s^−1, [H2S]/[HS^−]=0.794", "result": "0.90 ± 0.32", "unit": "µM"}, {"measurement": "kobs in labeled HeLa cells", "setting": "[7]; cells pretreated with 300 μM Na2S, probe 2-6", "result": "(7.9±1.9)×10^−6 s^−1"}, {"measurement": "total sulfide concentration ([H2S]+[HS^−]) in HeLa cells", "setting": "[7]; cells pretreated with 300 μM Na2S, from kobs, k2=5.17 M^−1s^−1, [H2S]/[HS^−]=0.794", "result": "2.7 ± 0.7", "unit": "µM"}]}]}
